Experimental data published in ChEMBL document CHEMBL5321204, “Hybrids of delavirdine and piperdin-4-yl-aminopyrimidines (DPAPYs) as potent HIV-1 NNRTIs: Design, synthesis and biological activities” (Eur J Med Chem, 2023).

How the values were obtained:
[1] = system: Human immunodeficiency virus 1; assay: Antiviral activity against HIV-1 K103 N mutant infected in human MT4 cells assessed as protection against virus induced cytopathic effect and measured after 5 days by MTT spectrophotometric assay; format: functional, organism-based; conditions: Human immunodeficiency virus 1, MT4, 120 h
[2] = Cytotoxicity against human MT4 cells assessed as reduction in cell viability incubated for 5 days by MTT spectrophotometric assay; format: toxicity, cell-based; conditions: time 5 day
[3] = system: Human immunodeficiency virus 2; assay: Antiviral activity against HIV-2 ROD infected in human MT4 cells assessed as protection against virus induced cytopathic effect and measured after 5 days by MTT spectrophotometric assay; format: functional, organism-based; conditions: Human immunodeficiency virus 2, ROD, MT4, 120 h
[4] = system: Human immunodeficiency virus 1; assay: microbe, parasite or virus in culture; conditions: Human immunodeficiency virus 1, IIIb, MT4, 120 h
Description: Antiviral activity against HIV-1 IIIb infected in human MT4 cells assessed as protection against virus induced cytopathic effect and measured after 5 days by MTT spectrophotometric assay

[5] = system: Human immunodeficiency virus 1; assay: Antiviral activity against HIV-1 RES056 mutant infected in human MT4 cells assessed as protection against virus induced cytopathic effect and measured after 5 days by MTT spectrophotometric assay; format: functional, organism-based; conditions: Human immunodeficiency virus 1, MT4, 120 h
[6] = in vitro; conditions: human, MT4 cells
Description: Selectivity index, ratio of CC50 for cytotoxicity against human MT4 cells assessed as reduction in cell viability to EC50 for antiviral activity against HIV-1 IIIb infected in human MT4 cells assessed as reduction in virus induced cytopathic effect

[7] = system: Human immunodeficiency virus 1; assay: Antiviral activity against HIV-1 Y181C mutant infected in human MT4 cells assessed as protection against virus induced cytopathic effect and measured after 5 days by MTT spectrophotometric assay; format: functional, organism-based; conditions: Human immunodeficiency virus 1, MT4, 120 h
[8] = system: Human immunodeficiency virus 1; assay: Antiviral activity against HIV-1 L100I mutant infected in human MT4 cells assessed as protection against virus induced cytopathic effect and measured after 5 days by MTT spectrophotometric assay; format: functional, organism-based; conditions: Human immunodeficiency virus 1, MT4, 120 h
[9] = system: Human immunodeficiency virus 1; assay: Antiviral activity against HIV-1 Y188L mutant infected in human MT4 cells assessed as protection against virus induced cytopathic effect and measured after 5 days by MTT spectrophotometric assay; format: functional, organism-based; conditions: Human immunodeficiency virus 1, MT4, 120 h
[10] = system: Human immunodeficiency virus 1; assay: Antiviral activity against HIV-1 F227L-V106A mutant infected in human MT4 cells assessed as protection against virus induced cytopathic effect and measured after 5 days by MTT spectrophotometric assay; format: functional, organism-based; conditions: Human immunodeficiency virus 1, MT4, 120 h
[11] = biological target: Human immunodeficiency virus type 1 reverse transcriptase (Human immunodeficiency virus 1, UniProt Q72547); assay: Inhibition of HIV-1 reverse transcriptase using [2,8-3H]dGTP as substrate by […] assay
[12] = system: Human immunodeficiency virus 1; assay: Antiviral activity against HIV-1 E138K mutant infected in human MT4 cells assessed as protection against virus induced cytopathic effect and measured after 5 days by MTT spectrophotometric assay; format: functional, organism-based; conditions: Human immunodeficiency virus 1, MT4, 120 h

Compound | EC50 [1] [µM] | CC50 at 120 h [2] [µM] | EC50 [3] [µM] | EC50 [4] [µM] | EC50 [5] [µM] | selectivity ratio [6] | EC50 [7] [µM] | EC50 [8] [µM] | EC50 [9] [µM] | EC50 [10] [µM] | IC50 [11] [µM] | EC50 [12] [µM]
Cc1cc(C#N)cc(C)c1Oc1ccnc(NC2CCN(C(=O)c3cc4cc(NS(C)(=O)=O)ccc4[nH]3)CC2)n1 | 0.54 | 25 | > 25 | 0.036 | > 25 | 686 | 0.73 | 1.8 | 3.8 | 3.6 | 0.13 | 0.21
CS(=O)(=O)Nc1ccc2[nH]c(C(=O)N3CCC(Nc4nccc(Oc5ccccc5Br)n4)CC3)cc2c1 | 3.8 | 17 | > 17 | 0.27 | > 17 | 60 | 3.7 | 6.8 | 7.1 | 6.5 | 1.4 | 0.79
Cc1cc(C)c(Oc2ccnc(NC3CCN(C(=O)c4cc5cc(NS(C)(=O)=O)ccc5[nH]4)CC3)n2)c(C)c1 | 0.12 | 19 | > 19 | 0.009 | > 19 | 2150 | 0.36 | 1.1 | 0.75 | 3.06 | 0.11 | 0.033
CS(=O)(=O)Nc1ccc2[nH]c(C(=O)N3CCC(Nc4nccc(Oc5ccc(Cl)cc5)n4)CC3)cc2c1 | 8.4 | 15 | > 15 | 0.74 | > 15 | 20 | > 15 | 8.2 | > 15 | > 15 | 1.1 | 4.5
Cc1cc(Oc2ccnc(NC3CCN(C(=O)c4cc5cc(NS(C)(=O)=O)ccc5[nH]4)CC3)n2)cc(C)c1Cl | > 5.3 | 5.3 | > 5.3 | 1.3 | > 5.3 | 4 | > 5.3 | > 5.3 | > 5.3 | > 5.3 | 3 | > 5.3
Cc1cccc(C)c1Oc1ccnc(NC2CCN(C(=O)c3cc4cc(NS(C)(=O)=O)ccc4[nH]3)CC2)n1 | 0.52 | 21 | > 21 | 0.032 | > 21 | 678 | 0.84 | 3.3 | 0.67 | 2.7 | 12 | 0.08
CS(=O)(=O)Nc1ccc2[nH]c(C(=O)N3CCC(Nc4nccc(Oc5ccc(Br)cc5)n4)CC3)cc2c1 | 8.2 | 9.1 | > 9.1 | 0.87 | > 9.1 | 10 | > 9.1 | 7.1 | > 9.1 | > 9.1 | 2.2 | 6.7
CS(=O)(=O)Nc1ccc2[nH]c(C(=O)N3CCC(Nc4nccc(Oc5cccc(C(F)(F)F)c5)n4)CC3)cc2c1 | > 16 | 16 | > 16 | 1 | > 16 | 16 | > 16 | > 16 | > 16 | > 16 | 1.8 | 4.2
CS(=O)(=O)Nc1ccc2[nH]c(C(=O)N3CCC(Nc4nccc(Oc5ccc(C#N)cc5)n4)CC3)cc2c1 | > 192 | 192 | > 192 | 3.1 | > 192 | 62 | > 192 | > 192 | > 192 | > 192 | 1.1 | 7.3
Cc1ccccc1Oc1ccnc(NC2CCN(C(=O)c3cc4cc(NS(C)(=O)=O)ccc4[nH]3)CC2)n1 | 8.7 | 13 | > 13 | 0.33 | > 13 | 41 | 9 | > 13 | > 13 | > 13 | 8.6 | 1
CS(=O)(=O)Nc1ccc2[nH]c(C(=O)N3CCC(Nc4nccc(Oc5cccc(F)c5)n4)CC3)cc2c1 | > 15 | 15 | > 15 | 5.7 | > 15 | 3 | > 15 | > 15 | > 15 | > 15 | 4.2 | 7.3
